pIC50: −log10 of the molar value. Several values for one entry are separate records, joined by “and”; a condition that tells them apart may be missing. Identical values can stand only once.
Tested on: 379773-124-R-J2-PDC spheroid viability
Test: Anticancer human tumor 379773-124-R-J2-PDC patient-derived endometrial carcinoma cell line growth inhibition [POLQ]
Details: spheroids with HUVEC and MSC; for viability, T/C: stronger effect = lower value
Protocol: Multicellular complex tumor spheroid response to Polymerase (POL) inhibitors (novobiocin, ART-558, RP6685) in combination with a variety of drugs and investigational agents in selected tumor cell lines
The POL inhibitors (novobiocin, ART-558, and RP6685) were evaluated both individually and in combination with standard of care and investigational anticancer small molecules within a complex spheroid model of solid tumors. . Complex spheroids include a stromal component modeled by human endothelial cells (HUVEC) and fibroblasts modeled by human mesenchymal stem cells (MSCs). The concentration ranges selected for each drug and investigational agent were based upon clinically achievable concentrations if the clinical Cmax of the agent was known.
Compounds. The drugs and investigational agents: novobiocin (NSC847541), ART-558 (NSC835418), RP-6685 (NSC848927), peposertib (NSC802822), ceralasertib (NSC780249), elimusertib (NSC800525), camonsertib (NSC841442), AZD-1390 (NSC803789), olaparib (NSC753686), talazoparib (NSC767125), rucaparib (NSC756644), sotorasib (NSC818433), MRTX-1133 (NSC836407), SN-38 (NSC673596), topotecan (NSC609699), epotoside (NSC141540), doxorubicin (NSC123127), gemcitabine (NSC613327), 5-fluorouracil (NSC19893), paclitaxel (NSC125973), vemurafenib (NSC761431), MSA-2 (NSC828583), SN-011 (NSC837082), adavosertib (NSC754352), prexasertib (NSC758257), carboplatin (NSC241240) and oxaliplatin (NSC266046), were obtained from the National Cancer Institute (NCI) Developmental Therapeutics Program Chemical Repository (21). The FDA-approved anticancer drug set is available from the Developmental Therapeutics Program at https://dtp.cancer.gov/organization/dscb/obtaining/. […] The stock solutions were prepared in dimethyl sulfoxide (DMSO, Sigma-Aldrich, St. Louis, MO, cat. D2650), except for the platinum compounds which were prepared in saline (Quality Biological, Gaithersburg, MD, cat. 114-055-101), at 800-fold the tested concentration and stored at -70 degrees C prior to their use. All drugs and investigational agents were tested over a range starting from a high concentration at or near the clinical Cmax and decreasing in half-log increments. If the clinical Cmax for an agent had not been determined, the highest concentration tested was 10 microM, except for SN-38, which was tested at a high concentration of 1 microM.
Cell Culture. All cells were maintained in an incubator at 37 degrees C and 5% CO2 with 95% humidity. The PDC lines were cultured according to standard operating procedures established by the NCI PDMR (https://pdmr.cancer.gov). Table 3 of the manuscript, lists the cell lines along with the number of the three cell types plated to form the mct-spheroids and media for tumor cell growth. After thawing, all PDC lines, except 997537-175-T-J1-PDC and 415267-285-R-J2-PDC, were cultured in Matrigel-coated flasks prepared with a working solution of 1X Ham's F-12 nutrient mix, without supplementation (Thermo Fisher Scientific, cat. 11765054), 100 U/mL penicillin-streptomycin (Thermo Fisher Scientific, cat. 15140122), and 2.5% Matrigel (Corning Inc., Corning, NY, cat. 354248) for the first three passages. The two PDC lines 997537-175-T-J1-PDC and 415267-285-R-J2-PDC were cultured on uncoated flasks. The 857933-349-R-J2-PDC line was cultured in 6C/Colon 1B media containing advanced DMEM/F-12 (Thermo Fisher Scientific, cat. 12634028), 10 mM HEPES (Thermo Fisher Scientific, cat. 15630080), 1X GlutaMAX supplement (Thermo Fisher Scientific, cat. 35050061), 0.1 mg/mL primocin (InvivoGen, San Diego, CA, cat. ant-pm-2), 10% defined fetal bovine serum, heat inactivated (HyClone Laboratories Inc., Logan, UT, cat. SH30070.03HI), 50% L-WRN conditioned media (ATCC, cat. CRL-3276), 1.25 mM N-Acetyl-L-cysteine (Sigma-Aldrich, cat. A9165), 10 mM nicotinamide (Sigma-Aldrich, cat. N0636), 1X B-27 supplement (Thermo Fisher Scientific, cat. 17504044), 1X N-2 supplement (Thermo Fisher Scientific, cat. […]
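Further: spheroids exposed to drugs for seven days before readout.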
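Wherever viability, T/C is given: percent viability relative to DMSO vehicle control taken as 100%.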

With `COc1ccc([C@@H](O)c2cc(-c3ncnc4cc(N5CCOCC5)ccc34)c(F)cc2Cl)nn1` the viability, T/C (compound 0.0316 µM) was 92.5% and 98.9% and 94.2%, the viability, T/C (compound 0.1 µM) was 91.3% and 93.2% and 82.2% and the viability, T/C (compound 0.316 µM) was 79.4% and 93.5% and 84.7%. For the same compound, the viability, T/C (compound 1 µM) was 99.3% and 110% and 87.4%, the viability, T/C (compound 3.16 µM) was 67.8% and 76.8% and 86.3% and the viability, T/C (compound 10 µM) was 37.9% and 43.7% and 38.1%. For the same compound, the pIC50 (curve of compound) was 5.20 and 5.10 and 5.12.

For `CCCS(=O)(=O)Nc1ccc(F)c(C(=O)c2c[nH]c3ncc(-c4ccc(Cl)cc4)cc23)c1F`, the viability, T/C (compound 0.0316 µM) was 95.9% and 86.2% and 78.9%, the viability, T/C (compound 0.1 µM) was 93.8% and 93.3% and 98.6% and the viability, T/C (compound 0.316 µM) was 87.6% and 96.1% and 91.3%. For the same compound, the viability, T/C (compound 1 µM) was 87% and 91% and 69%, the viability, T/C (compound 3.16 µM) was 84.2% and 84% and 74.1% and the viability, T/C (compound 10 µM) was 57.6% and 51.9% and 57.4%. The pIC50 (curve of compound) was < 5.00.

In the case of `CC(=O)O[C@H]1C(=O)[C@@]2(C)[C@H]([C@H](OC(=O)c3ccccc3)[C@]3(O)C[C@H](OC(=O)[C@H](O)[C@@H](NC(=O)c4ccccc4)c4ccccc4)C(C)=C1C3(C)C)[C@]1(OC(C)=O)CO[C@@H]1C[C@@H]2O` + COC1C(OC(N)=O)C(O)C(Oc2ccc3c(O)c(NC(=O)c4ccc(O)c(CC=C(C)C)c4)c(=O)oc3c2C)OC1(C)C, the pIC50 (curve of first compound, second compound 0.0316 µM) was > 8.02, the pIC50 (curve of first compound, second compound 0.1 µM) was > 8.02 and the pIC50 (curve of first compound, second compound 0.316 µM) was > 8.02. For the same compound, the pIC50 (curve of first compound, second compound 1 µM) was > 8.02, the pIC50 (curve of first compound, second compound 3.16 µM) was > 8.02 and the pIC50 (curve of first compound, second compound 10 µM) was > 8.02. The viability, T/C (second compound 0.0316 µM, first compound 0.00949 µM) was 19.1%, the viability, T/C (second compound 0.0316 µM, first compound 0.03 µM) was 6.48% and the viability, T/C (second compound 0.0316 µM, first compound 0.0949 µM) was 7.9%. It also gave a viability, T/C (second compound 0.0316 µM, first compound 0.3 µM) of 9.31%, a viability, T/C (second compound 0.0316 µM, first compound 0.949 µM) of 7.71% and a viability, T/C (second compound 0.0316 µM, first compound 3 µM) of 5.65%. The viability, T/C (second compound 0.1 µM, first compound 0.00949 µM) was 23.8%, the viability, T/C (second compound 0.1 µM, first compound 0.03 µM) was 7.55% and the viability, T/C (second compound 0.1 µM, first compound 0.0949 µM) was 8.46%. The viability, T/C (second compound 0.1 µM, first compound 0.3 µM) was 7.94%, the viability, T/C (second compound 0.1 µM, first compound 0.949 µM) was 6.43% and the viability, T/C (second compound 0.1 µM, first compound 3 µM) was 6.33%. It also gave a viability, T/C (second compound 0.316 µM, first compound 0.00949 µM) of 18.3%, a viability, T/C (second compound 0.316 µM, first compound 0.03 µM) of 8.15% and a viability, T/C (second compound 0.316 µM, first compound 0.0949 µM) of 8.46%. For the same compound, the viability, T/C (second compound 0.316 µM, first compound 0.3 µM) was 9.54%, the viability, T/C (second compound 0.316 µM, first compound 0.949 µM) was 7.17% and the viability, T/C (second compound 0.316 µM, first compound 3 µM) was 6.23%. It also gave a viability, T/C (second compound 1 µM, first compound 0.00949 µM) of 24.1%, a viability, T/C (second compound 1 µM, first compound 0.03 µM) of 9.6% and a viability, T/C (second compound 1 µM, first compound 0.0949 µM) of 8.23%. For the same compound, the viability, T/C (second compound 1 µM, first compound 0.3 µM) was 7.23%, the viability, T/C (second compound 1 µM, first compound 0.949 µM) was 8.2% and the viability, T/C (second compound 1 µM, first compound 3 µM) was 6.6%. For the same compound, the viability, T/C (second compound 3.16 µM, first compound 0.00949 µM) was 22%, the viability, T/C (second compound 3.16 µM, first compound 0.03 µM) was 8.1% and the viability, T/C (second compound 3.16 µM, first compound 0.0949 µM) was 9.73%. The viability, T/C (second compound 3.16 µM, first compound 0.3 µM) was 8.26%, the viability, T/C (second compound 3.16 µM, first compound 0.949 µM) was 6.92% and the viability, T/C (second compound 3.16 µM, first compound 3 µM) was 6.09%. For the same compound, the viability, T/C (second compound 10 µM, first compound 0.00949 µM) was 18.3%, the viability, T/C (second compound 10 µM, first compound 0.03 µM) was 7.78% and the viability, T/C (second compound 10 µM, first compound 0.0949 µM) was 7.88%. The viability, T/C (second compound 10 µM, first compound 0.3 µM) was 7.81%, the viability, T/C (second compound 10 µM, first compound 0.949 µM) was 6.9% and the viability, T/C (second compound 10 µM, first compound 3 µM) was 8.24%.

With `CC1COCCN1c1cc(-c2ccnn2C)c2ccnc(-c3ccn[nH]3)c2n1` (stereo not drawn) the viability, T/C (compound 0.0316 µM) was 75.5% and 78.8% and 88.4%, the viability, T/C (compound 0.1 µM) was 53.1% and 47.6% and 54.7% and the viability, T/C (compound 0.316 µM) was 11.6% and 8.88% and 12.7%. The viability, T/C (compound 1 µM) was 8.44% and 8.27% and 10.5%, the viability, T/C (compound 3.16 µM) was 10.4% and 10.8% and 12.3% and the viability, T/C (compound 10 µM) was 5.02% and 6.19% and 8.08%. For the same compound, the pIC50 (curve of compound) was 6.96 and 7.04 and 6.94.
